Values of other authors in article PMC10329608, “Investigation of the structure-activity relationship at the N-terminal part of minigastrin analogs” (EJNMMI Research, 2023).

System: A431-CCK-2R tumor
Conditions: mouse, in vivo, 1 h; cited from earlier work

DOTA-D-Glu-Ala-Tyr-Gly-Trp-(N-Me)Nle-Asp-1-Nal-NH2 [[^68 Ga]Ga-DOTA-MGS5]
activity levels in the tumor: 23.3 ± 4.7 %ID/g
activity uptake in the kidneys: 5.7 ± 1.4 %ID/g
